Our source for the EC50 values is BindingDB's records for doi:10.7270/Q2WQ028B (Vanderbilt Screening Center For Gpcrs, Ion Channels and …, 2010).

This assay has as its target T1, G protein-activated inward rectifier potassium channel 1 (Rattus norvegicus, UniProt P63251).
T1 sequence (P63251 whole entry): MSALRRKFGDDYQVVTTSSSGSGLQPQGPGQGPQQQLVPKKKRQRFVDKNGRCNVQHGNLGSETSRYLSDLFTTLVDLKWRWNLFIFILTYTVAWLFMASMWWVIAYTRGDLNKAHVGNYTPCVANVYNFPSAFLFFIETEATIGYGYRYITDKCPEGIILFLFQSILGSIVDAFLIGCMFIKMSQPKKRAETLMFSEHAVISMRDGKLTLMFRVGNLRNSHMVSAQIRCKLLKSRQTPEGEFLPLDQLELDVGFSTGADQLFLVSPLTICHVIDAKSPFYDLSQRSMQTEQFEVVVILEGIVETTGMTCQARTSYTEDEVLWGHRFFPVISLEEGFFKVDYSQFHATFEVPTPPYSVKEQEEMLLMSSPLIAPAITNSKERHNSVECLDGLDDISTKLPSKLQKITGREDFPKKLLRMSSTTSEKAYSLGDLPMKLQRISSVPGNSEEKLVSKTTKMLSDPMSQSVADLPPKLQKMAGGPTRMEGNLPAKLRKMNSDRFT
Put plainly: alpha2C-dependent GIRK activation, antagonist reversal – cell-based, thallium flux, with rauwolscine, mechanism study for alpha2C adrenergic receptor project, dose response (AID 435016). The conditions noted are these: inactive by the depositor's call.

As to `CCOC(=O)c1ccc(NC(=O)NC(C)C2CCCO2)cc1` (stereo not drawn), the EC50 came to 41.4 µM. The figure for `CCSc1nnc(NC(=O)NC(CC)(C(F)(F)F)C(F)(F)F)s1` [1-(5-ethylsulfanyl-1,3,4-thiadiazol-2-yl)-3-[1,1,1-trifluoro-2-(trifluoromethyl)butan-2-yl]urea] is 2.29 µM.

With `O=c1c(-c2ccc3c(c2)OCCO3)c(C(F)(F)F)oc2cc(O)cc(O)c12` [3-(2,3-dihydro-1,4-benzodioxin-6-yl)-5,7-bis(oxidanyl)-2-(trifluoromethyl)chromen-4-one], the concentration for a half-maximal effect (EC50) was determined as 12.6 µM.
